Here are results for five compounds from patent publication US20260166128A1, “HUMAN AMYLIN ANALOG, AND DERIVATIVE THEREOF AND USE THEREOF” (priority 2022, published 2026).

Molecules are shown by their SMILES. Numbered stars: 1 amine (or outer) side, 2 acyl side, 3 side chain; on linkers, the order of the positions; unused ones are H or OH. Bridge positions count the residues as written; N and C are the ends. Square brackets hold non-standard residues; d marks the D form. Side chains are listed from the residue outwards. Peptide text beside a SMILES is read from it. * marks the point of attachment. C20 diacid = O=C(O)CCCCCCCCCCCCCCCCCCC(=O)*; C18 diacid = O=C(O)CCCCCCCCCCCCCCCCC(=O)*; γGlu = O=C(O)[C@H](CCC(=O)[*:2])N[*:1]; Hyp = O=C(O)[C@@H]1C[C@@H](O)CN1; AEEA = NCCOCCOCC(=O)O

The nature of data set [1]: Freeze-thaw stability of derivatives (freeze-thaw yield by liquid chromatography). Type of data set: physicochemical. To be noted: for Dissolution property: appearance after dissolution at 0.2 mg/ml in 20 mM phosphate buffer solution (PB) (pH 7.0); for Freeze storage property: appearance after overnight storage at −20° C. and thawing to room temperature, 0.2 mg/ml in 20 mM PB (pH 7.0); for Freeze storage yield: concentration of polypeptide after freezing and thawing / concentration before, by liquid chromatography, −20° C. overnight. An outline of the steps: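 Freeze-thaw yield is the ratio of peptide concentration after versus before one overnight −20° C freeze and room-temperature thaw, both quantified by RP-HPLC of supernatant after centrifugation. Samples were 0.2 mg/ml freeze-dried derivative in 20 mM PB, pH 7.0.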

A further data set addresses T1, human amylin receptor (Homo sapiens, UniProt O60896+P30988).
T1 construct: host or cells: CHO-K1/Ga15/AMY3 cells, further stably transfected with a CRE-luciferase plasmid
T1 sequence (P30988 25-474): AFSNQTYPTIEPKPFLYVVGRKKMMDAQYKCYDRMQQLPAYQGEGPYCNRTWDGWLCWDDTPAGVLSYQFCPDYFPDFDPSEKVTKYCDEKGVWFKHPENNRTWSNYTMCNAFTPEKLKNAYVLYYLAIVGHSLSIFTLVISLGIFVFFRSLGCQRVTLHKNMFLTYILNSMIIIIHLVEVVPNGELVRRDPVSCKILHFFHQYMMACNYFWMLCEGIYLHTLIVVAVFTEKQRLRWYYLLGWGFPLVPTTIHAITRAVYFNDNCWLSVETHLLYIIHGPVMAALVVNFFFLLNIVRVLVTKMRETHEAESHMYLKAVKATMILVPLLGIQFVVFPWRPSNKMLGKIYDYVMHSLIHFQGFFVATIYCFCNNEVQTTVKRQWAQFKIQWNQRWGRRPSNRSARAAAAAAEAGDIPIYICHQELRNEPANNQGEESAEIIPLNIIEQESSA
T1 sequence (O60896 24-148 partner): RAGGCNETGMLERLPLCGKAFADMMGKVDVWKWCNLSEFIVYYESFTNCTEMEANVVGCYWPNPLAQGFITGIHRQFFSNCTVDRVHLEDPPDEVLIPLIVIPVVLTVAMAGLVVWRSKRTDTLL
Nature of the data set: Luciferase assay of amylin derivatives in amylin receptor/CRE-luc CHO cell line. Conditions: CHO-K1/Ga15/AMY3 CRE-luc cells, 24 hours incubation, F12 medium containing 10% FBS; read-out: EC50. Type of data set: cell-based.

Description for human amylin receptor: The experiment was intended to detect the activity or efficacy of the amylin derivatives on a human amylin receptor in vitro by luciferase assay.
50 μL of growth medium (F12 medium containing 10% FBS) was added into each well of a white 96-well plate, and the stably transfected amylin/CRE-lue CHO cells were inoculated into the white 96-well plate at a density of about 20,000 cells/well for activity determination.

Take `CC[C@H](C)[C@H](NC(=O)[C@@H]1CCCN1C(=O)CNC(=O)[C@H](CC(C)C)NC(=O)[C@H](CCCCNC(=O)COCCOCCNC(=O)COCCOCCNC(=O)CC[C@H](NC(=O)CCCCCCCCCCCCCCCCCCC(=O)O)C(=O)O)NC(=O)[C@H](CC(N)=O)NC(=O)[C@H](CO)NC(=O)[C@H](CO)NC(=O)[C@H](Cc1c[nH]cn1)NC(=O)[C@H](CCCNC(=N)N)NC(=O)[C@H](CC(C)C)NC(=O)[C@H](Cc1ccccc1)NC(=O)[C@H](CC(=O)O)NC(=O)[C@H](C)NC(=O)[C@H](CC(C)C)NC(=O)[C@H](CCCNC(=N)N)NC(=O)[C@H](CCC(N)=O)NC(=O)[C@@H](NC(=O)[C@H](C)NC(=O)[C@@H]1CSSC[C@H](NC(=O)[C@@H](N)CCCNC(=N)N)C(=O)N[C@@H](CC(N)=O)C(=O)N[C@@H]([C@@H](C)O)C(=O)N[C@@H](C)C(=O)N[C@@H]([C@@H](C)O)C(=O)N1)[C@@H](C)O)C(=O)N[C@@H](CC(C)C)C(=O)N1CCC[C@H]1C(=O)N1CCC[C@H]1C(=O)N[C@H](C(=O)N[C@@H](CC(N)=O)C(=O)N[C@H](C(=O)NCC(=O)N[C@@H](CO)C(=O)N[C@@H](CC(N)=O)C(=O)N[C@H](C(=O)N1C[C@H](O)C[C@H]1C(N)=O)[C@@H](C)O)C(C)C)[C@@H](C)O` [PD087] (H-RCNTATCATQRLADFLRHSSNK([AEEA-AEEA-γGlu-C20 diacid])LGPILPPTNVGSNT[Hyp]-NH2; disulfide 2-7 (inferred); N-terminus assumed): in data set [1], the Dissolution property result was “Clear”, the Freeze storage property result is “Clear” and the Freeze storage yield is listed as 102.65%. In addition, at human amylin receptor, the EC50 is 0.032 nM.
As for `CC[C@H](C)[C@H](NC(=O)[C@@H]1CCCN1C(=O)CNC(=O)[C@H](CC(C)C)NC(=O)[C@H](CC(N)=O)NC(=O)[C@H](CC(N)=O)NC(=O)[C@H](CO)NC(=O)[C@H](CCCCNC(=O)COCCOCCNC(=O)CC[C@H](NC(=O)CCCCCCCCCCCCCCCCC(=O)O)C(=O)O)NC(=O)[C@H](Cc1c[nH]cn1)NC(=O)[C@H](CCCNC(=N)N)NC(=O)[C@H](CC(C)C)NC(=O)[C@H](Cc1ccccc1)NC(=O)[C@H](CC(=O)O)NC(=O)[C@H](C)NC(=O)[C@H](CC(C)C)NC(=O)[C@H](CCCNC(=N)N)NC(=O)[C@H](CCC(N)=O)NC(=O)[C@@H](NC(=O)[C@H](C)NC(=O)[C@@H]1CSSC[C@H](NC(=O)[C@@H](N)CCCNC(=N)N)C(=O)N[C@@H](CC(N)=O)C(=O)N[C@@H]([C@@H](C)O)C(=O)N[C@@H](C)C(=O)N[C@@H]([C@@H](C)O)C(=O)N1)[C@@H](C)O)C(=O)N[C@@H](CC(C)C)C(=O)N1CCC[C@H]1C(=O)N1CCC[C@H]1C(=O)N[C@H](C(=O)N[C@@H](CC(N)=O)C(=O)N[C@H](C(=O)NCC(=O)N[C@@H](CO)C(=O)N[C@@H](CC(N)=O)C(=O)N[C@H](C(=O)N1C[C@H](O)C[C@H]1C(N)=O)[C@@H](C)O)C(C)C)[C@@H](C)O` [PD119] (H-RCNTATCATQRLADFLRHK([AEEA-γGlu-C18 diacid])SNNLGPILPPTNVGSNT[Hyp]-NH2; disulfide 2-7 (inferred); N-terminus assumed), in data set [1], the Dissolution property entry is “Clear”, the Freeze storage property result was “Clear” and the Freeze storage yield is listed as 103.04%. Further, the EC50 on human amylin receptor is 0.024 nM.
As for `CC[C@H](C)[C@H](NC(=O)[C@@H]1CCCN1C(=O)[C@H](CCCCNC(=O)CC[C@H](NC(=O)CCCCCCCCCCCCCCCCCCC(=O)O)C(=O)O)NC(=O)[C@H](CC(C)C)NC(=O)[C@H](CC(N)=O)NC(=O)[C@H](CC(N)=O)NC(=O)[C@H](CO)NC(=O)[C@H](CO)NC(=O)[C@H](Cc1c[nH]cn1)NC(=O)[C@H](CCCNC(=N)N)NC(=O)[C@H](CC(C)C)NC(=O)[C@H](Cc1ccccc1)NC(=O)[C@H](CC(=O)O)NC(=O)[C@H](C)NC(=O)[C@H](CC(C)C)NC(=O)[C@H](CCCNC(=N)N)NC(=O)[C@H](CCC(N)=O)NC(=O)[C@@H](NC(=O)[C@H](C)NC(=O)[C@@H]1CSSC[C@H](NC(=O)[C@@H](N)CCCNC(=N)N)C(=O)N[C@@H](CC(N)=O)C(=O)N[C@@H]([C@@H](C)O)C(=O)N[C@@H](C)C(=O)N[C@@H]([C@@H](C)O)C(=O)N1)[C@@H](C)O)C(=O)N[C@@H](CC(C)C)C(=O)N1CCC[C@H]1C(=O)N1CCC[C@H]1C(=O)N[C@H](C(=O)N[C@@H](CC(N)=O)C(=O)N[C@H](C(=O)NCC(=O)N[C@@H](CO)C(=O)N[C@@H](CC(N)=O)C(=O)N[C@H](C(=O)N1C[C@H](O)C[C@H]1C(N)=O)[C@@H](C)O)C(C)C)[C@@H](C)O` [PD052] (H-RCNTATCATQRLADFLRHSSNNLK([γGlu-C20 diacid])PILPPTNVGSNT[Hyp]-NH2; disulfide 2-7 (inferred); N-terminus assumed), in data set [1], the Dissolution property result is reported as “Clear”, the Freeze storage property entry was “Clear” and the Freeze storage yield was 96.53%. Moreover, the EC50 on human amylin receptor worked out at 0.03 nM.
As for `CC[C@H](C)[C@H](NC(=O)[C@@H]1CCCN1C(=O)[C@H](CCCCNC(=O)CC[C@H](NC(=O)CCCCCCCCCCCCCCCCCCC(=O)O)C(=O)O)NC(=O)[C@H](CC(C)C)NC(=O)[C@H](CC(N)=O)NC(=O)[C@H](CC(N)=O)NC(=O)[C@H](CO)NC(=O)[C@H](CO)NC(=O)[C@H](Cc1c[nH]cn1)NC(=O)[C@H](CCCNC(=N)N)NC(=O)[C@H](CC(C)C)NC(=O)[C@H](Cc1ccccc1)NC(=O)[C@H](CCC(=O)O)NC(=O)[C@H](C)NC(=O)[C@H](CC(C)C)NC(=O)[C@H](CCCNC(=N)N)NC(=O)[C@H](CCC(N)=O)NC(=O)[C@@H](NC(=O)[C@H](C)NC(=O)[C@@H]1CSSC[C@H](N)C(=O)N[C@@H](CC(N)=O)C(=O)N[C@@H]([C@@H](C)O)C(=O)N[C@@H](C)C(=O)N[C@@H]([C@@H](C)O)C(=O)N1)[C@@H](C)O)C(=O)N[C@@H](CC(C)C)C(=O)N1CCC[C@H]1C(=O)N1CCC[C@H]1C(=O)N[C@H](C(=O)N[C@@H](CC(N)=O)C(=O)N[C@H](C(=O)NCC(=O)N[C@@H](CO)C(=O)N[C@@H](CC(N)=O)C(=O)N[C@H](C(=O)N1CCC[C@H]1C(N)=O)[C@@H](C)O)C(C)C)[C@@H](C)O` [PD049] (H-CNTATCATQRLAEFLRHSSNNLK([γGlu-C20 diacid])PILPPTNVGSNTP-NH2; disulfide 1-6 (inferred); N-terminus assumed), in data set [1], the Dissolution property result was “Clear”, the Freeze storage property entry is listed as “Clear” and the Freeze storage yield is 99.00%. On human amylin receptor, the EC50 stood at 0.215 nM.
`CC[C@H](C)[C@H](NC(=O)[C@@H]1CCCN1C(=O)CNC(=O)[C@H](Cc1ccccc1)NC(=O)[C@H](CC(N)=O)NC(=O)[C@H](CC(N)=O)NC(=O)[C@H](CO)NC(=O)[C@H](CO)NC(=O)[C@H](Cc1c[nH]cn1)NC(=O)[C@H](CCCNC(=N)N)NC(=O)[C@H](CC(C)C)NC(=O)[C@H](Cc1ccccc1)NC(=O)[C@H](CC(=O)O)NC(=O)[C@H](C)NC(=O)[C@H](CC(C)C)NC(=O)[C@H](CCCNC(=N)N)NC(=O)[C@H](CCC(N)=O)NC(=O)[C@@H](NC(=O)[C@H](C)NC(=O)[C@@H]1CSSC[C@H](NC(=O)[C@H](CCCCN)NC(=O)CC[C@H](NC(=O)CCCCCCCCCCCCCCCCCCC(=O)O)C(=O)O)C(=O)N[C@@H](CC(N)=O)C(=O)N[C@@H]([C@@H](C)O)C(=O)N[C@@H](C)C(=O)N[C@@H]([C@@H](C)O)C(=O)N1)[C@@H](C)O)C(=O)N[C@@H](CC(C)C)C(=O)N1CCC[C@H]1C(=O)N1CCC[C@H]1C(=O)N[C@H](C(=O)N[C@@H](CC(N)=O)C(=O)N[C@H](C(=O)NCC(=O)N[C@@H](CO)C(=O)N[C@@H](CC(N)=O)C(=O)N[C@H](C(=O)N1C[C@H](O)C[C@H]1C(N)=O)[C@@H](C)O)C(C)C)[C@@H](C)O` [PD067] ({C20 diacid-γGlu}-KCNTATCATQRLADFLRHSSNNFGPILPPTNVGSNT[Hyp]-NH2; disulfide 2-7 (inferred)): in data set [1], the Dissolution property entry is “Clear”, the Freeze storage property result is “Clear” and the Freeze storage yield was 98.84%. Besides, the EC50 at human amylin receptor turned out to be 0.034 nM.

As usually defined, the EC50 is the midpoint of the concentration-response curve.
